Results published in ChEMBL document CHEMBL4196027, “Structure-based discovery of cytotoxic dimeric tetrahydroxanthones as potential topoisomerase I inhibitors from a marine-derived fungus” (Eur J Med Chem, 2018).

Experiments:
HL-60 = experiment: Cytotoxicity against human HL60 cells assessed as reduction in cell proliferation after 48 hrs by MTT assay; type: functional, cell-based; settings: Homo sapiens, HL-60, 48 h
K562 = experiment: Cytotoxicity against human K562 cells assessed as reduction in cell proliferation after 48 hrs by MTT assay; type: functional, cell-based; settings: Homo sapiens, K562, 48 h
A549 = experiment: Cytotoxicity against human A549 cells assessed as reduction in cell proliferation after 48 hrs by MTT assay; type: functional, cell-based; settings: Homo sapiens, A549, 48 h
NCI-H1975 = experiment: Cytotoxicity against human NCI-H1975 cells assessed as reduction in cell proliferation after 48 hrs by MTT assay; type: functional, cell-based; settings: Homo sapiens, NCI-H1975, 48 h
MGC-803 [1] = experiment: Cytotoxicity against human MGC803 cells assessed as reduction in cell proliferation after 48 hrs by MTT assay; type: functional, cell-based; settings: Homo sapiens, MGC-803, 48 h
HEK293 = experiment: Cytotoxicity against HEK293 cells assessed as reduction in cell proliferation after 48 hrs by MTT assay; type: cell-based; settings: Homo sapiens, HEK293, 48 h
[2] = Cytotoxicity against human HO8910 cells assessed as reduction in cell proliferation after 48 hrs by MTT assay; type: functional, cell-based; settings: Homo sapiens, HO-8910, 48 h
HCT-116 = experiment: Cytotoxicity against human HCT116 cells assessed as reduction in cell proliferation after 48 hrs by MTT assay; type: functional, cell-based; settings: Homo sapiens, HCT-116, 48 h
MGC-803 [3] = experiment: Cell cycle arrest in human MGC803 cells assessed as accumulation at G0/G1 phase at 6.25 uM after 24 hrs by propidium iodide staining based flow cytometry (reference value: 59.68%); type: functional
MGC-803 [4] = experiment: Cell cycle arrest in human MGC803 cells assessed as accumulation at S phase at 6.25 uM after 24 hrs by propidium iodide staining based flow cytometry (reference value: 31.17%); type: functional
MGC-803 [5] = experiment: Cell cycle arrest in human MGC803 cells assessed as accumulation at G2/M phase at 6.25 uM after 24 hrs by propidium iodide staining based flow cytometry (reference value: 9.15%); type: functional
MGC-803 [6] = experiment: Cell cycle arrest in human MGC803 cells assessed as accumulation at G0/G1 phase at 12.5 uM after 24 hrs by propidium iodide staining based flow cytometry (reference value: 59.68%); type: functional
MGC-803 [7] = experiment: Cell cycle arrest in human MGC803 cells assessed as accumulation at S phase at 12.5 uM after 24 hrs by propidium iodide staining based flow cytometry (reference value: 31.17%); type: functional
MGC-803 [8] = experiment: Cell cycle arrest in human MGC803 cells assessed as accumulation at G2/M phase at 12.5 uM after 24 hrs by propidium iodide staining based flow cytometry (reference value: 9.15%); type: functional
MGC-803 [9] = experiment: Cell cycle arrest in human MGC803 cells assessed as accumulation at G0/G1 phase at 25 uM after 24 hrs by propidium iodide staining based flow cytometry (reference value: 59.68%); type: functional
MGC-803 [10] = experiment: Cell cycle arrest in human MGC803 cells assessed as accumulation at S phase at 25 uM after 24 hrs by propidium iodide staining based flow cytometry (reference value: 31.17%); type: functional
MGC-803 [11] = experiment: Cell cycle arrest in human MGC803 cells assessed as accumulation at G2/M phase at 25 uM after 24 hrs by propidium iodide staining based flow cytometry (reference value: 9.15%); type: functional
MGC-803 [12] = experiment: Induction of apoptosis in human MGC803 cells assessed as early apoptotic cells at 6.25 uM after 24 hrs by Annexin V-FITC/propidium iodide staining based flow cytometry (reference value: 0.56%); type: functional
MGC-803 [13] = experiment: Induction of apoptosis in human MGC803 cells assessed as late apoptotic cells at 6.25 uM after 24 hrs by Annexin V-FITC/propidium iodide staining based flow cytometry (reference value: 0.12%); type: functional
MGC-803 [14] = experiment: Induction of apoptosis in human MGC803 cells assessed as necrotic cells at 6.25 uM after 24 hrs by Annexin V-FITC/propidium iodide staining based flow cytometry (reference value: 0.92%); type: functional
MGC-803 [15] = experiment: Induction of apoptosis in human MGC803 cells assessed as early apoptotic cells at 12.5 uM after 24 hrs by Annexin V-FITC/propidium iodide staining based flow cytometry (reference value: 0.56%); type: functional
MGC-803 [16] = experiment: Induction of apoptosis in human MGC803 cells assessed as late apoptotic cells at 12.5 uM after 24 hrs by Annexin V-FITC/propidium iodide staining based flow cytometry (reference value: 0.12%); type: functional
MGC-803 [17] = experiment: Induction of apoptosis in human MGC803 cells assessed as necrotic cells at 12.5 uM after 24 hrs by Annexin V-FITC/propidium iodide staining based flow cytometry (reference value: 0.92%); type: functional
MGC-803 [18] = experiment: Induction of apoptosis in human MGC803 cells assessed as early apoptotic cells at 25 uM after 24 hrs by Annexin V-FITC/propidium iodide staining based flow cytometry (reference value: 0.56%); type: functional
MGC-803 [19] = experiment: Induction of apoptosis in human MGC803 cells assessed as late apoptotic cells at 25 uM after 24 hrs by Annexin V-FITC/propidium iodide staining based flow cytometry (reference value: 0.12%); type: functional
MGC-803 [20] = experiment: Induction of apoptosis in human MGC803 cells assessed as necrotic cells at 25 uM after 24 hrs by Annexin V-FITC/propidium iodide staining based flow cytometry (reference value: 0.92%); type: functional
MGC-803 [21] = experiment: Induction of necrosis in human MGC803 cells at 6.25 uM after 48 hrs by Hoechst 33342/propidium iodide staining based flow cytometry (reference value: 3.73%); type: functional
MGC-803 [22] = experiment: Induction of necrosis in human MGC803 cells at 12.5 uM after 48 hrs by Hoechst 33342/propidium iodide staining based flow cytometry (reference value: 3.73%); type: functional
MGC-803 [23] = experiment: Induction of necrosis in human MGC803 cells at 25 uM after 48 hrs by Hoechst 33342/propidium iodide staining based flow cytometry (reference value: 3.73%); type: functional

COC(=O)[C@@]12Oc3cc(C)c(-c4ccc5c(c4O)C(=O)C4=C(O)C[C@H](C)[C@@H](O)[C@]4(C(=O)OC)O5)c(O)c3C(=O)C1=C(O)CC[C@H]2O (stereo in doubt; 1)
IC50 (HL-60): 13.4 µM
IC50 (K562): 20.9 µM
IC50 (A549): 17.8 µM
IC50 (NCI-H1975): 9.8 µM
IC50 (MGC-803 [1]): 4.6 µM
IC50 (HEK293): > 50 µM
IC50 [2]: 9.6 µM
IC50 (HCT-116): 16.2 µM
Activity (MGC-803 [3]): 33.65%
Activity (MGC-803 [4]): 31.02%
Activity (MGC-803 [5]): 35.33%
Activity (MGC-803 [6]): 25.7%
Activity (MGC-803 [7]): 36.98%
Activity (MGC-803 [8]): 37.32%
Activity (MGC-803 [9]): 29.67%
Activity (MGC-803 [10]): 22.9%
Activity (MGC-803 [11]): 47.43%
Activity (MGC-803 [12]): 0.26%
Activity (MGC-803 [13]): 0.17%
Activity (MGC-803 [14]): 1.88%
Activity (MGC-803 [15]): 0.42%
Activity (MGC-803 [16]): 0.56%
Activity (MGC-803 [17]): 1.46%
Activity (MGC-803 [18]): 0.26%
Activity (MGC-803 [19]): 0.59%
Activity (MGC-803 [20]): 4.06%
Activity (MGC-803 [21]): 6.97%
Activity (MGC-803 [22]): 19.29%
Activity (MGC-803 [23]): 31.33%
